Measured values as given in article PMC8386747, “Structure–activity relationship, in vitro and in vivo evaluation of novel dienyl sulphonyl fluorides as selective BuChE inhibitors for the treatment of Alzheimer's disease” (Journal of Enzyme Inhibition and Medicinal Chemistry, 2021).
“Also recorded” adds a separate entry of the source.

Columns and labels:
[1] = target: T1, recombinant human AChE (hAChE) (Homo sapiens, UniProt P22303); assay: hAChE inhibition assay (Ellman's assay); type: biochemical
T1 construct: purchased Sigma C1682
Procedure: The solution was diluted to 5 concentrations of 200, 100, 10, 1 and 0.1 µM in ethanol. Measurements were performed using 96-well plates. Buffer (40 µL), sample at a series of concentrations (10 µL), AChE (10 µL), and dibutyl succinate (20 µL) were successively added. The mixture was then incubated for 5 min at 37 °C. Then, 20 µL of ACh or BuCh were added and the reaction started. […] For the blank value, 10 µL of water was used instead of the inhibitor solution. The activity of the inhibitor was expressed as a logarithmic plot of the percentage of enzyme activity (with 100% as the reference) versus the concentration of the compound. IC50 values were determined graphically from inhibition curves (log inhibitor concentration versus percent inhibition).

[2] = system: human hepatoblastoma cells HepG2; assay: Cytotoxicity MTT assay on HepG2 cells; type: cell-based; conditions: 24 h
Procedure: (§1) The cytotoxic effect was detected by MTT colorimetric assay. Human hepatoblastoma cells HepG2 and human normal hepatocyte L02 were maintained at 37 °C in a 5% humidified incubator containing 10% foetal bovine serum, 100 U/mL penicillin and […] streptomycin. HepG2 cells and L02 cells were seeded in 96-well plates at 1 × 10^4 cells per well. After cell culture for 24 h, different compounds were diluted in DMEM for 24 h. […] of 5 mg/mL MTT reagent was added for incubation for 4 h. After 4 h, the cell culture medium was removed and […] of DMSO was added to dissolve formazan. The optical density was measured at 492 nm (OD492). Cell viability was calculated from three independent experiments. The density of formazan formed in blank group was set as 100% of viability. Cell viability (%) ¼ compound (OD492/blank (OD492) ×100%

[3] = system: human normal hepatocyte L02; assay: Cytotoxicity MTT assay on L02 cells; type: cell-based; conditions: 24 h
Procedure: as §1

male ICR mice = assay: In vivo hepatotoxicity evaluation
eqBuChE = target: T2, eqBuChE (Equus caballus, UniProt P81908); assay: Kinetic study of eqBuChE inhibition; type: biochemical, horse
T2 construct: BuChE from equine serum (C4290-1KU; Sigma); purchased Sigma C4290-1KU; host or cells: equine serum
Procedure: Kinetic studies were performed with the same test conditions, using six concentrations of substrate (0.1‒1 mM) and four concentrations of inhibitor (0‒0.08 mM). The apparent inhibition constants and kinetic parameters were calculated in the “Enzyme Kinetics” module of Prism8. The effect of compound A10 concentration on the catalytic activity of BuChE at 37 °C was investigated. Assay conditions were same as described in the assay protocol except that the final concentration of enzyme was varied (0‒0.72 U/mL). Concentrations of compound A10 were 0, 0.02, 0.04, 0.08 µM respectively, for the determination of reversible as well as irreversible binding of inhibitors at enzyme.

[4] = PAMPA-BBB class
Procedure: (§2) The 96-well UV plate (COSTAR) was manufactured by Corning Corporation, USA, and the commercially available drugs and test compounds were initially dissolved in DMSO at a concentration of 20 mg/mL. The solution was then diluted 200-fold with PBS (pH 7.4 ± 0.1)/EtOH (70/30, v/v) solution to a final concentration of 100 µg/mL.
(§3) The test compound was dissolved in DMSO at 5 mg/mL and diluted 200-fold with universal buffer (final concentration 25 µg/mL) to prepare the secondary stock solution; 200 µL of the secondary stock solution was added to the donor well; the acceptor plate was coated with 4 µL of 20 mg/mL dodecyl porcine polar brain, and then, 200 µL of pH 7.4 universal buffer was added to the acceptor well; the acceptor plate was carefully placed on the donor plate to form a “sandwich” and maintained for 18 h; the drug concentrations in the acceptor, donor and reference wells were determined using a UV microplate reader; the experiment was repeated three times, and the concentrations of the test compound in the donor and acceptor wells were measured using a UV plate spectral reader (PerkinElmer VICT or Nivo, Finland). In at least three independent experiments, each sample was analysed at three wavelengths in a four well.

[5] = system: Aβ1-42-induced cognitive dysfunction; assay: Morris water maze in Aβ1-42-induced cognitive impairment model; type: in vivo, mouse; conditions: mice, 10 mg/kg po Day 3 to Day 14
Procedure: All experiments were performed according to the National Institutes of Health Guide for the Care and Use of Laboratory Animals. The Measures for the Care and Treatment of Laboratory Animals were approved by the Animal Care and Use Committee of Anhui Medical University. Male ICR mice were used in the animal centre of Anhui Medical University (Hefei). Male mice (18‒24 g) aged 6‒8 weeks, 10 mice per cage, room temperature 22 ± 2 °C, light/dark (12:12 h) cycle. These animals had access to food and water prior to testing. The ambient temperature and relative humidity (50%) of the room remained consistent throughout all tests. Behavioural experiments: MWM was used for cognitive function, and mice were randomly selected for behavioural experiments. Each experimental group consisted of 8‒10 mice/dose. The experimental time was from 08:00 to 14:00, and the mice were sacrificed by cervical dislocation immediately after the end of the experiment. […]. Aβ1-42 aggregation was induced by dissolving the Aβ1-42 peptide in DMSO as a stock solution of 5 mM and incubating it in saline at a final concentration of 2 mg/mL for 24 h at 37 °C.
The behavioural study was a water maze experimental behavioural study on days 10 − 15, including a 5-day learning and memory training, and a test assessment on day 6. MWM consists of a water-filled pool (grey, circular, 1.20 m in diameter, 0.60 m in height) and a platform with adjustable height and movable position. The pool was divided into four equal quadrants (compass position: NE, NW, SE, SW) using a computerised video tracking system (SMART, version 3.0; Panlab, Spain). The pool was filled with water, generally about 48 cm below the edge, to prevent animals from jumping out, and the water temperature was maintained at 22 ± 1 °C. […] The time to reach the hidden platform (i.e. escape latency), the distance to reach the hidden platform, the distance in the target (NW) area, and the average speed were recorded. […]

[6] = target: T3, BuChE from human serum (hBuChE) (Homo sapiens, UniProt P06276); assay: hBuChE inhibition assay (Ellman's assay); type: biochemical; conditions: mean ± SEM
T3 construct: BuChE from human serum (hBuChE); purchased Sigma B4186; host or cells: human serum
Procedure: DTNB solution (5 µM) was prepared with 0.1 M pH 8 PBS. The test compound was dissolved at a concentration of 2 × 1 0^−1 M in DMSO and stored at temperatures ranging from −20 to 4 °C as a stock solution. The solution was diluted to 5 concentrations of 200, 100, 10, 1 and 0.1 µM in ethanol. Measurements were performed using 96-well plates. Buffer (40 µL), sample at a series of concentrations (10 µL), AChE (10 µL), and dibutyl succinate (20 µL) were successively added. The mixture was then incubated for 5 min at 37 °C. Then, 20 µL of ACh or BuCh were added and the reaction started. […] For the blank value, 10 µL of water was used instead of the inhibitor solution. The activity of the inhibitor was expressed as a logarithmic plot of the percentage of enzyme activity (with 100% as the reference) versus the concentration of the compound. IC50 values were determined graphically from inhibition curves (log inhibitor concentration versus percent inhibition).

ICR mice = assay: In vivo acute toxicity evaluation; design: species or system mouse
Procedure: […]. Compound A10 was suspended in a mixture of DMSO, PEG 400 and physiological saline (10/50/40, v/v/v). After fasting for 8‒12 h, the mice were intragastrically administered with the preparation or test compound A10 1.0 g/kg on the first day. The behaviour, appearance and body weight changes of the mice were observed and recorded for 2 weeks. The body weights of the mice in the control group and experimental group were compared and summarised with GraphPadPrism8.0 software.

in vitro = conditions: PAMPA, PAMPA-BBB
Procedure: as §2, §3

AChE from electric eel = target: T4, AChE from electric eel (Electrophorus electricus, UniProt O42275); assay: EeAChE inhibition assay (Ellman's method); type: biochemical; conditions: read-out: AChE % inhibition at 20 µM; AChE from electric eel; 20 µM; na = no inhibitory activity at 20 µM
T4 construct: assays were performed on AChE from electric eel (C3389-500UN; Sigma); purchased Sigma C3389-500UN
Procedure: (§4) According to the Ellman’s method, assays were performed on AChE from electric eel (C3389-500UN; Sigma) and BuChE from equine serum (C4290-1KU; Sigma). The experiment was performed in 48-well plates in a final volume of 500 µL. Each well contained 0.036 U/mL of eeAChE or eqBuChE, and 0.1 M pH 8 PBS. They were pre-incubated for 20 min at different compound concentrations at 37 °C. […] The DTNB produces the yellow anion 5-thio-2-nitrobenzoic acid along with the enzymatic degradation of ACh or BuCh. Changes in absorbance were measured at 410 nm after 20 min in a PerkinElmer VICTOR Nivo reader. The IC50 values were calculated graphically from inhibition curves (log inhibitor concentration vs percent of inhibition). A control experiment was performed under the same conditions without inhibitor and the blank contained buffer, DMSO, DTNB, and substrate.

Aβ1-42 = type: in vivo, mouse; conditions: mice, Aβ1-42 icv; 10 mg/kg po; vs model group
Procedure: In the experiment of Aβ1-42 oligomeric injury, all mice were sacrificed after the end of behavioural study, and the brains were taken to determine the total content of Aβ1-42 with a mouse ELISA kit (Wuhan Huamei Biotechnology Co., Ltd.). Each brain tissue specimen was completely homogenised with a grinder with 10 times PBS (pH = 7.4 ± 0.1) and then centrifuged at 5000×g for 5 min. The supernatant was separated for use. Brain tissue Aβ1-42 content was calculated according to the linear regression equation.

BuChE from equine serum = target: T5, BuChE from equine serum (Equus caballus, UniProt P81908); assay: eqBuChE inhibition assay (Ellman's method); type: biochemical; conditions: BuChE from horse serum; mean ± SEM
T5 construct: BuChE from equine serum (C4290-1KU; Sigma); purchased Sigma C4290-1KU; host or cells: equine serum
Procedure: as §4

PC12 cells = assay: Neuroprotection assay against H2O2 damage; type: cell-based; conditions: PC12, 100 µM H2O2 (model 47.3%), not given
[7] = 30 mg/kg intragastric, 8, 22 and 36 h

T2 sequence (P81908 whole entry): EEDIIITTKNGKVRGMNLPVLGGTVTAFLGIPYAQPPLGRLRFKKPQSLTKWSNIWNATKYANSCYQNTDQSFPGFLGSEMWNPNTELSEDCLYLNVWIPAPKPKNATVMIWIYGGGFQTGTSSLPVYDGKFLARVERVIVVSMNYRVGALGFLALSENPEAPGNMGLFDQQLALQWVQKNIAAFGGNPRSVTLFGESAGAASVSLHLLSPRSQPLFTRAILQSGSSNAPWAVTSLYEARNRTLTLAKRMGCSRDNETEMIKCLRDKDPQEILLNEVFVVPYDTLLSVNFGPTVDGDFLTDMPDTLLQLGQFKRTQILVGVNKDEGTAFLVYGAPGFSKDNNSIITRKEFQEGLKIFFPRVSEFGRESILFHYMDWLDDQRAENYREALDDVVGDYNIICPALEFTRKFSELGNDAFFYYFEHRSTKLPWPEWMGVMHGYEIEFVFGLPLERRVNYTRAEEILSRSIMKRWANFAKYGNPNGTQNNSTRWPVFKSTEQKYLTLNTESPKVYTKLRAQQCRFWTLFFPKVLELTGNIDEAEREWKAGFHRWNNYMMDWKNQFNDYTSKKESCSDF
T4 sequence (O42275 24-633): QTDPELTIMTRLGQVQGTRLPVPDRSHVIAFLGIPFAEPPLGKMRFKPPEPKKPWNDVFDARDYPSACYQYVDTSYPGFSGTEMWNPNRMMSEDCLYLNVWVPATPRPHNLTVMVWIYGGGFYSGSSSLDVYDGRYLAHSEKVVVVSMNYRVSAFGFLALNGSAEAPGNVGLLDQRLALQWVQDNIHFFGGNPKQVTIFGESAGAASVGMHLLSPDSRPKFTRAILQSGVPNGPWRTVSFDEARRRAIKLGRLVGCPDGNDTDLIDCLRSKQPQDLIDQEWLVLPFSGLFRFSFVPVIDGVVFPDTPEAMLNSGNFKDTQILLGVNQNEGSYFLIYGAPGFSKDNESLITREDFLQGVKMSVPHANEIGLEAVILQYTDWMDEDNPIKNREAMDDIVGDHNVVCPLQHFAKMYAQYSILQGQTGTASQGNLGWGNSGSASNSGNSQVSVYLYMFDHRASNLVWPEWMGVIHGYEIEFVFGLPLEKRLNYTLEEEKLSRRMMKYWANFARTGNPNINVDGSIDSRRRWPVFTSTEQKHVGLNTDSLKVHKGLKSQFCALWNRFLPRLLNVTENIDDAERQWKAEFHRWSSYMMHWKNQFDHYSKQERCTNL
T5 sequence (P81908 whole entry): as the sequence (P81908 whole entry) above
T1 sequence (P22303 32-614): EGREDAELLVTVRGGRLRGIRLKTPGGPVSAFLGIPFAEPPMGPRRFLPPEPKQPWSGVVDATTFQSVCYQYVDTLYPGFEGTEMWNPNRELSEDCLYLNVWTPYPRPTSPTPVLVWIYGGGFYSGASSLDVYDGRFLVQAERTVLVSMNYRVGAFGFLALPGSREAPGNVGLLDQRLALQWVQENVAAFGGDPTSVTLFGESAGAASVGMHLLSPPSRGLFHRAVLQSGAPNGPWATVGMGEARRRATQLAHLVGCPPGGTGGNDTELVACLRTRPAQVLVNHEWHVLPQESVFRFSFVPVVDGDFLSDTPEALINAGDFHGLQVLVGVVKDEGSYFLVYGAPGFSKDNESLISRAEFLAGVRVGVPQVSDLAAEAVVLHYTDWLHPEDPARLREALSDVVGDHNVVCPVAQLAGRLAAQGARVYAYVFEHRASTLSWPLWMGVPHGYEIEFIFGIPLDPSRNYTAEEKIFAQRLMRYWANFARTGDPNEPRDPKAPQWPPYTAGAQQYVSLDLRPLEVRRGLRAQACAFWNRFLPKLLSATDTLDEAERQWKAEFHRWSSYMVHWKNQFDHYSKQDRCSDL
T3 sequence (P06276 29-602): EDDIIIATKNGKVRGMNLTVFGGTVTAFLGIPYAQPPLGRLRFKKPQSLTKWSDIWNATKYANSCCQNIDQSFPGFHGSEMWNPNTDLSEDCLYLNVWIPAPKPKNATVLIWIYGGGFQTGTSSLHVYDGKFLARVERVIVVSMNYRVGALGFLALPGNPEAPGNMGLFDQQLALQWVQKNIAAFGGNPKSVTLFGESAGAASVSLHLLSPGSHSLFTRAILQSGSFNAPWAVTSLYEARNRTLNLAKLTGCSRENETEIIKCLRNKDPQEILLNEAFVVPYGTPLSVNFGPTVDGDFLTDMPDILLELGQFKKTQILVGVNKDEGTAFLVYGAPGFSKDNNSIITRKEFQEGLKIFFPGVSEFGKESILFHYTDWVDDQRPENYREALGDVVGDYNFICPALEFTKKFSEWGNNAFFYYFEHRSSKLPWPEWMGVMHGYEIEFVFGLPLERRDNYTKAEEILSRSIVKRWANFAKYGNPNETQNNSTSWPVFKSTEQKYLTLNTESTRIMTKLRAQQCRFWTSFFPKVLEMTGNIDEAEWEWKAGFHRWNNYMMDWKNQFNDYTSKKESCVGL

SMILES: COc1ccccc1C=CC=C(Br)S(=O)(=O)F [Compound A10]
- inhibition at 20 µM [1]: 49.7 ± 2.7%
- cell survival rate ([2]; 50 µM): 85.6%
- cell survival rate ([2]; 10 and 25 µM): did not decrease
- cell survival rate ([3]; 50 µM): 87.1%
- cell survival rate ([3]; 10 and 25 µM): did not decrease
- serum ALT vs vehicle group (male ICR mice; [7]): no significant difference
- serum AST vs vehicle group (male ICR mice; [7]): no significant difference
- liver histomorphology (male ICR mice; 30 mg/kg, 36 h after administration): didn’t show central necrosis or significant steatosis
- type of BuChE inhibition (eqBuChE; Lineweaver–Burk plot, eqBuChE): mixed competitive; also recorded: mixed inhibition
- reversibility of BuChE inhibition (eqBuChE; enzyme activity vs enzyme concentration, 0–0.08 µM inhibitor): reversible
- Ki (eqBuChE; eqBuChE, Lineweaver–Burk secondary plot, read-out: dissociation constant Ki): 29 nM
- BBB penetration [4]: CNS+ (“CNS +” (high BBB permeation): Pe (× 10^‒6 cm/s) >4.0)
- body weight gain during treatment [5]: did not affect
- effect on Aβ1-42-induced cognitive dysfunction (MWM) ([5]; Aβ1-42 10 µg icv, 10 mg/kg): significantly improved; also recorded: improved the cognitive impairment
- IC50 [6]: 3620 ± 320 nM
- general condition, appearance and activity (ICR mice; 1.0 g/kg intragastric): no significant change in appearance and activity
- difference of body weight changes vs vehicle group (ICR mice; ICR mice, 1.0 g/kg intragastric, 14 days): not significant
- tolerability in vivo (ICR mice; ICR mice, single intragastric dose 1.0 g/kg, 14 days): well tolerated
- Papp (in vitro; pH 7.4, Pe): 13.7 ×10⁻⁶ cm/s
- Papp (in vitro; pH 7.4, Pe×10^-6cm/s Exp. value, three independent experiments): 13.4 ×10⁻⁶ cm/s
- inhibition at 20 µM (AChE from electric eel): 40.8 ± 3.3%
- decrease of brain Aβ1-42 peptides (Aβ1-42): 20.6%
- IC50 (BuChE from equine serum): 21 nM
- cell survival rate (PC12 cells; first (lower) of the A10 concentrations): 63.3%
- cell survival rate (PC12 cells; second (higher) of the A10 concentrations): 71.8%
